{"source": "patent US20170137433A1", "about": "“CRYSTALLINE, ANHYDROUS FORMS OF OXYMORPHONE HYDROCHLORIDE” (Endo Pharmaceuticals Inc., priority 2011, published 2017)", "test": "Solid-form stability of the polymorph (heat treatment / storage observation)", "format": "physicochemical", "conditions": "at room temperature and at elevated temperatures; solid form obtained by heating at 200° C. for 3-4 hours in a drying oven", "description": "This polymorph was obtained by a heat treatment of either the above-described polymorph mixture or of oxymorphone hydrochloride monohydrate at 200° C. for a period of 3-4 hours in a drying oven.", "note": "Counter-ions that a name gives are not always drawn."}
{"smiles": "CN1CC[C@]23c4c5ccc(O)c4O[C@H]2C(=O)CC[C@@]3(O)[C@H]1C5", "note": "[second polymorph, crystalline, anhydrous hydrochloride salt of 4,5α-epoxy-3,14-dihydroxy-17-methylmorphinan-6-one]", "values": [{"measurement": "polymorphic form stability", "result": "stable at room temperature and at elevated temperatures"}]}
